According to PMC7716246 (ACS chemical neuroscience, 2020):
Read-outs that look alike come from different tables or passages of the source.

Legend:
Aβ42 peptide [1] = biological target: T1, Aβ42 peptide (Homo sapiens, UniProt P05067); assay: Inhibition of Aβ42 aggregation, TEM and native gel electrophoresis/Western blot; format: biochemical; details: 37 °C, 24 h; for Aβ42 aggregates observed by TEM: [Aβ42] = [M^2+] = [AMF] = 25 μM; for Aβ42 aggregates by native gel/Western blot: 25 μM
amyloid plaques = format: binding, 5xFAD transgenic mice; details: brain sections of 7 month old 5xFAD mice
Aβ42 fibrils [2] = biological target: T2, Aβ42 fibrils (Homo sapiens, UniProt P05067); assay: Disaggregation of preformed Aβ42 fibrils, ThT fluorescence; format: biochemical; details: in the absence and presence of Cu^2+; [Aβ] = [M^2+] = [AMF] = 25 μM, additional 24 h at 37 °C
Aβ42 fibrils [3] = biological target: T2, Aβ42 fibrils; format: biochemical; details: 25 μM, 37 °C; for Disaggregation of Aβ42 aggregates (TEM, native gel/Western blot): 24 h then 24 h with AMF
[4] = 2:1 Metal:AMF mixture, [M^2+]tot = 25 μM, [AMF]tot = 50 μM
[5] = UV-vis Cu^2+ binding and Job's plot analysis of AMF:Cu^2+ stoichiometry; format: physicochemical
Aβ fibrils (Aβ40) = Aβ fibrils (Aβ40) (Homo sapiens, UniProt P05067); assay: Thioflavin T; format: binding
[6] = pH 7.4; 2:1 Metal:AMF mixture, [M^2+]tot = 25 μM, [AMF]tot = 50 μM
[7] = Cu^2+-induced ascorbate consumption assay; format: biochemical; details: [Cu^2+] = 10 μM, [AMF] = 24 μM, [ascorbate] = 100 μM
Aβ42 peptide [8] = biological target: T1, Aβ42 peptide; assay: Inhibition of Aβ42 aggregation, ThT fluorescence; format: biochemical; details: in presence and absence of Cu^2+ or Zn^2+; [Aβ] = [M^2+] = [AMF] = 25 μM, 37 °C, 24 h

T1 sequence (P05067 672-713 limits assumed): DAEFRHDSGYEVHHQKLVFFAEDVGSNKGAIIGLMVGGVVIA
T2 sequence (P05067 672-713 limits assumed): as above
Chain of Aβ fibrils (Aβ40) (P05067 672-711 limits assumed): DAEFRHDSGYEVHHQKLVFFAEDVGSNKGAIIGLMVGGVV

For `O=c1cc(-c2ccc(O)c(-c3c(O)cc(O)c4c(=O)cc(-c5ccc(O)cc5)oc34)c2)oc2cc(O)cc(O)c12` [AMF, amentoflavone], the “Aβ42 aggregates observed by TEM” value (Aβ42 peptide [1]; in the absence and presence of Cu^2+) was “only small amorphous aggregates were observed”, the “Aβ42 aggregates by native gel/Western blot” value (Aβ42 peptide [1]; in the presence of Cu^2+) was “the amount of soluble Aβ42 oligomers is also reduced” and the “Aβ42 aggregates by native gel/Western blot” value (Aβ42 peptide [1]; in the presence of Zn^2+) was “a wide range of various-size aggregates is formed”. For the same compound, the “Aβ42 aggregates observed by TEM” value (Aβ42 peptide [1]; in the presence of Zn^2+) was “a range of amorphous and fibrillar aggregates is formed”, the “Aβ42 aggregates by native gel/Western blot” value (Aβ42 peptide [1]; no metal ions) was “dramatically reduces the amount of large Aβ42 aggregates” and the “Fluorescence intensity of stained brain sections” value (amyloid plaques; 25 μM) was “strong fluorescent intensity”. The “Pearson's correlation coefficient, colocalization with HJ3.4 immunofluorescence” value (amyloid plaques; [AMF] = [Cu^2+] = 25 μM, [HJ3.4] = 1 μg/mL) was 0.65, the “Disaggregation of preformed Aβ42 fibrils (ThT fluorescence)” value (Aβ42 fibrils [2]) was “efficient at reducing the amount of Aβ42 fibrils” and the “Disaggregation of Aβ42 aggregates (TEM, native gel/Western blot)” value (Aβ42 fibrils [3]; Cu^2+-incubated Aβ42 aggregates) was “reduction in the amount of both large aggregates and smaller Aβ42 oligomers”. The “Disaggregation of Aβ42 aggregates (TEM, native gel/Western blot)” value (Aβ42 fibrils [3]; Zn^2+-incubated Aβ42 amorphous aggregates) was “decreases to some extent”, the “Disaggregation of Aβ42 fibrils (TEM, native gel/Western blot)” value (Aβ42 fibrils [3]; no metal ions, 24 h fibrilization then 24 h with AMF) was “disaggregates the Aβ42 fibrils efficiently” and the “pCu (pM = −log[M]free)” value ([4]; pH 6.6) was 9.62. The “pCu (pM = −log[M]free)” value ([4]; pH 7.4) was 10.44, the “Break in Job's plot” value ([5]; AMF and Cu^2+ in EtOH-PBS (1:10)) was 0.7 mole fraction of Cu and the “Cu bound per AMF (stoichiometry)” value ([5]; from Job's plot) was “at least 2 equiv”. For the same compound, the Ki (Aβ fibrils (Aβ40)) was 287 ± 20 nM, the “pZn (pM = −log[M]free)” value [6] was 8.15 and the “Effect on ascorbate consumption” value ([7]; AMF added to the Cu^2+-Aβ42-ascorbate solution, [Aβ42] = 12 μM) was “efficiently reduce the consumption of ascorbate”. For the same compound, the “Effect on ascorbate consumption” value ([7]; premixed AMF-Cu^2+ complex, with monomeric Aβ42 12 μM) was “significant inhibition of the ascorbate consumption” and the “Effect on Aβ42 fibrillization (ThT fluorescence)” value (Aβ42 peptide [8]) was “dramatically reduced the fibrillization of Aβ42”.
